Columns and labels:
Test in all cases: microbe, parasite or virus in culture
Type in all cases: cell-based
[1] = test system: pseudoviral particles carrying SARS-CoV-1 S; conditions: Severe acute respiratory syndrome coronavirus, 293T/ACE2, read-out: IC50 SARS-CoV-1
[2] = test system: pseudoviral particles carrying VSV-G; conditions: Vesicular stomatitis virus, 293T/ACE2, read-out: IC50 VSV-G
[3] = test system: pseudoviral particles bearing the Spike glycoprotein from SARS-CoV-2; conditions: Severe acute respiratory syndrome coronavirus 2, 293T/ACE2, read-out: IC50 SARS-CoV-2, Table 1; pseudovirus, 293T-ACE2 cells, compounds up to 100 µM

| SMILES | IC50 [1] [µM] | IC50 [2] [µM] | IC50 [3] [µM] |
| --- | --- | --- | --- |
| CCN(CC)C[C@@H](O)COc1cc(Br)cc(OC[C@H](O)CN(CC)CC)c1 [Compound 28] | 17.5 | > 100 | 1.79 |
| CN(C)C[C@@H](O)COc1cccc(Br)c1 [Compound 51] | 17.3 | > 100 | > 100 |
| CN1CCN(C[C@@H](O)COc2ccccc2)CC1 [Compound 48] | > 100 | > 100 | > 100 |
| CCN(CC)C[C@@H](O)COc1cccc(C(C)(C)C)c1 [Compound 64] | 57.4 | > 100 | > 100 |
| CN(C)C[C@@H](O)COc1ccccc1 [Compound 45] | 13.9 | > 100 | > 100 |
| CNC[C@@H](O)COc1cccc(F)c1 [Compound 54] | 55 | > 100 | > 100 |
| COc1ccc(CNC[C@@H](O)COc2cc(Br)cc(OC[C@H](O)CNCc3ccc(OC)cc3)c2)cc1 [Compound 38] | 0.66 | 4.09 | 1.03 |
| CNC[C@@H](O)COc1cccc(Br)c1 [Compound 49] | > 100 | > 100 | > 100 |
| CN1CCN(C[C@@H](O)COc2cccc(Br)c2)CC1 [Compound 53] | > 100 | > 100 | > 100 |
| CCN(C)C[C@@H](O)COc1cccc(OC[C@H](O)CN(C)CC)c1 [Compound 20] | 0.57 | > 100 | 1.18 |
| CNC[C@@H](O)COc1cccc(OC[C@H](O)CNC)c1 [Compound 25] | 0.45 | 2.69 | > 100 |
| CC(C)CNC[C@@H](O)COc1cccc(Br)c1 [Compound 50] | > 100 | > 100 | > 100 |
| O[C@H](CNC1CCOCC1)COc1cccc(OC[C@H](O)CNC2CCOCC2)c1 [Compound 24] | > 100 | 1.38 | 0.38 |
| O[C@@H](COc1cccc(OC[C@H](O)CN2CCC(O)(c3ccc(Cl)cc3)CC2)c1)CN1CCC(O)(c2ccc(Cl)cc2)CC1 [Compound 19] | 1.91 | 1.35 | 0.52 |
| O[C@@H](COc1cc(Br)cc(OC[C@H](O)CN2CCOCC2)c1)CN1CCOCC1 [Compound 29] | 30.5 | > 100 | 2.65 |
| CCN(C)C[C@@H](O)COc1cccc(F)c1 [Compound 57] | 6.17 | > 100 | > 100 |
| OC(COc1cccc(OCC(O)CN2CCCCC2)c1)CN1CCCCC1 (stereo not drawn) [VE607] | 0.74 | > 100 | 2.66 |
| CN(C)C[C@@H](O)COc1cccc(C(C)(C)C)c1 [Compound 62] | 0.934 | > 100 | 84.7 |
| O[C@@H](COc1ccccc1)CN1CCCCC1 [Compound 42] | 0.912 | > 100 | 1.35 |
| CC(C)CNC[C@@H](O)COc1cccc(C(C)(C)C)c1 [Compound 61] | 73.7 | > 100 | > 100 |
| CC(C)CNC[C@@H](O)COc1ccccc1 [Compound 44] | 5.95 | > 100 | > 100 |
| COc1ccc(CNC[C@@H](O)COc2cccc(OC[C@H](O)CNCc3ccc(OC)cc3)c2)cc1 [Compound 22] | 1.85 | 2.85 | 0.57 |
| CN(C)C[C@@H](O)COc1cccc(OC[C@H](O)CN(C)C)c1 [Compound 15] | 2.54 | 70.7 | 1.64 |
| CCN(CC)C[C@@H](O)COc1cccc(F)c1 [Compound 58] | > 100 | > 100 | > 100 |
| O[C@H](CNCc1ccccc1)COc1cc(Br)cc(OC[C@H](O)CNCc2ccccc2)c1 [Compound 34] | 0.34 | 4.71 | 0.49 |
| CN1CCN(C[C@@H](O)COc2cccc(OC[C@H](O)CN3CCN(C)CC3)c2)CC1 [Compound 17] | 19.9 | 74.9 | 1.76 |
